According to ChEMBL document CHEMBL1127007, “Quinazolinones 2: QSAR and in vivo characterization of AT1 selective AII antagonists” (Bioorg Med Chem Lett, 1993):
“And” between values parts separate entries of the source, which are not always exact repeats. Equal values may be shown once.

Tests used:
[1] = molecular target: T1, Type-1 angiotensin II receptor (Oryctolagus cuniculus, UniProt P34976); assay: Displacement of [125I]Sar1-Ile8-AII (without BSA) from type 1 Angiotensin II receptor of rabbit aorta; format: tissue-based
T1 sequence (P34976 whole entry): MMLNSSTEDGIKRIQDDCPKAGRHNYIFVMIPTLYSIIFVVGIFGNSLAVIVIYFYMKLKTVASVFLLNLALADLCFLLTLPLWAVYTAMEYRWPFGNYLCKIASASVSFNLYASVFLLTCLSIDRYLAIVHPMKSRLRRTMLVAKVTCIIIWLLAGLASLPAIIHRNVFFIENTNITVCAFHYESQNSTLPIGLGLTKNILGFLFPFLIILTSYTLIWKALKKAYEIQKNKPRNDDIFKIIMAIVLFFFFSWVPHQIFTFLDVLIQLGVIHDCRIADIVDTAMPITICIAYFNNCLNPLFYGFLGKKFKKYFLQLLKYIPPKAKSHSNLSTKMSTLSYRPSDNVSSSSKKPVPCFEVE

[2] = molecular target: T2, Type-2 angiotensin II receptor (Homo sapiens) (UniProt P50052); assay: In vitro antagonist activity against the Angiotensin II (type 2) receptor.; format: functional
T2 sequence (whole entry): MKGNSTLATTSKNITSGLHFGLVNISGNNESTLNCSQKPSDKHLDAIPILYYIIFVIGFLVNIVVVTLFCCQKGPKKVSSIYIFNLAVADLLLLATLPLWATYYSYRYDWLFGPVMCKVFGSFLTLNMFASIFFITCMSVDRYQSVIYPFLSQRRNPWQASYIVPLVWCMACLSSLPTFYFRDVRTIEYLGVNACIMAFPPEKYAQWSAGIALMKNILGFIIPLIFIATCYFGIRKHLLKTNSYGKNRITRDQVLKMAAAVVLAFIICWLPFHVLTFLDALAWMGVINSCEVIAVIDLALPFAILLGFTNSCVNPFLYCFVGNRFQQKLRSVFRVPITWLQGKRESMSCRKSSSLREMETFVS

[3] = molecular target: T1, Type-1 angiotensin II receptor; assay: Ability to displace [125I]Sar1-Ile8-AII from angiotensin II receptor, type 1 in rabbit aorta in presence of 0.2% bovine serum albumin (BSA) was determined in vitro; format: tissue-based
[4] = molecular target: Angiotensin II receptor (Rattus norvegicus) (UniProt P29089+P25095+P35351); assay: Duration of action as time for pressor response to fall below 30% for a single bolus by intravenous dose; format: functional, organism-based
[5] = system: Rattus norvegicus; assay: Compound was evaluated in vivo for inhibition of the AII pressor response in normotensive rat at dose 1 mg/kg, iv after 1.8 hour; format: functional
[6] = system: Rattus norvegicus; assay: Compound was evaluated in vivo for inhibition of the AII pressor response in normotensive rat at dose 1 mg/kg, iv after 1.2 hour; format: functional
[7] = system: Rattus norvegicus; assay: Compound was evaluated in vivo for inhibition of the AII pressor response in normotensive rat at dose 1 mg/kg, iv after <0.5 hour; format: functional
[8] = system: Rattus norvegicus; assay: The duration of action is expressed as the time for the % inhibition of pressor response to fall below 30% for a single bolus of the drug administered perorally.; format: functional
[9] = system: Rattus norvegicus; assay: Compound was evaluated in vivo for inhibition of the AII pressor response in normotensive rat at dose 3 mg/kg, iv after >6 hour; format: functional
[10] = system: Rattus norvegicus; assay: Compound was evaluated in vivo for inhibition of the AII pressor response in normotensive rat at dose 3 mg/kg, p.o. after >6 hour; format: functional; conditions: route oral
[11] = system: Rattus norvegicus; assay: Compound was evaluated in vivo for inhibition of the AII pressor response in normotensive rat at dose 1 mg/kg, iv after 0.3 hour; format: functional
[12] = system: Rattus norvegicus; assay: Compound was evaluated in vivo for inhibition of the AII pressor response in normotensive rat at dose 1 mg/kg, iv after 0.1 hour; format: functional
[13] = system: Rattus norvegicus; assay: Compound was evaluated in vivo for inhibition of the AII pressor response in normotensive rat at dose 0.3 mg/kg, p.o. after 3.5 hour; format: functional; conditions: route oral
[14] = system: Rattus norvegicus; assay: Compound was evaluated in vivo for inhibition of the AII pressor response in normotensive rat at dose 1 mg/kg, iv after >6 hour; format: functional
[15] = system: Rattus norvegicus; assay: Compound was evaluated in vivo for inhibition of the AII pressor response in normotensive rat at dose 10 mg/kg, iv after 2.2 hour; format: functional
[16] = system: Rattus norvegicus; assay: Compound was evaluated in vivo for inhibition of the AII pressor response in normotensive rat at dose 3 mg/kg, iv after 0.9 hour; format: functional
[17] = system: Rattus norvegicus; assay: Compound was evaluated in vivo for inhibition of the AII pressor response in normotensive rat at dose 3 mg/kg, p.o. after 1.1 hour; format: functional; conditions: route oral
[18] = system: Rattus norvegicus; assay: Compound was evaluated in vivo for inhibition of the AII pressor response in normotensive rat at dose 1 mg/kg, iv after 0.5 hour; format: functional
[19] = system: Rattus norvegicus; assay: Compound was evaluated in vivo for inhibition of the AII pressor response in normotensive rat at dose 0.3 mg/kg, p.o. after >3.5 hour; format: functional; conditions: route oral
[20] = system: Rattus norvegicus; assay: Compound was evaluated in vivo for inhibition of the AII pressor response in normotensive rat at dose 1 mg/kg, p.o. after >5 hour; format: functional; conditions: route oral
[21] = system: Rattus norvegicus; assay: Compound was evaluated in vivo for inhibition of the AII pressor response in normotensive rat at dose 0.03 mg/kg, iv; format: functional
[22] = system: Rattus norvegicus; assay: Compound was evaluated in vivo for inhibition of the AII pressor response in normotensive rat at dose 0.03 mg/kg, po; format: functional
[23] = system: Rattus norvegicus; assay: Compound was evaluated in vivo for inhibition of the AII pressor response in normotensive rat at dose 0.1 mg/kg, iv after 2.5 hour; format: functional
[24] = system: Rattus norvegicus; assay: Compound was evaluated in vivo for inhibition of the AII pressor response in normotensive rat at dose 0.1 mg/kg, p.o. after >3 hour; format: functional; conditions: route oral
[25] = system: Rattus norvegicus; assay: Compound was evaluated in vivo for inhibition of the AII pressor response in normotensive rat at dose 0.3 mg/kg, iv after 4 hour; format: functional

SMILES	IC50 [1]	Activity [2]	IC50 [3]	Duration [4]	also measured
CCCCc1nc2ccc(N(C)C(=O)N(C)C(C)C)cc2c(=O)n1Cc1ccc(-c2ccccc2-c2nnn[nH]2)cc1	0.58 nM	–	–	–	–
CCCCc1nc2ccc([S+](C)[O-])cc2c(=O)n1Cc1ccc(-c2ccccc2-c2nn[nH]n2)cc1 (stereo not given)	0.9 nM	> 1000 nM	1 nM	1.8 h	inhibition in vivo at 1 mg/kg [5]: 89%
CCCCc1nc2ccc(NC)cc2c(=O)n1Cc1ccc(-c2ccccc2-c2nn[nH]n2)cc1	–	> 1000 nM	–	1.2 h	inhibition in vivo at 1 mg/kg [6]: 94%
CCCCc1nc2ccc(C)cc2c(=O)n1Cc1ccc(-c2ccccc2-c2nnn[nH]2)cc1	1.1 nM	–	–	–	–
CCCCc1nc2ccc(N(C)C)cc2c(=O)n1Cc1ccc(-c2ccccc2-c2nn[nH]n2)cc1	–	> 1000 nM	5 nM	> 0.5 h	inhibition in vivo at 1 mg/kg [7]: 55%
CCCCc1nc2ccc(C(C)C)cc2c(=O)n1Cc1ccc(-c2ccccc2-c2nn[nH]n2)cc1	4 nM	> 1000 nM	5 nM	–	Duration [8]: >6 h; inhibition in vivo at 3 mg/kg [9]: 90%; inhibition in vivo at 3 mg/kg [10]: 72%; inhibition in vivo at 1 mg/kg [11]: 34%
CCCCc1nc2ccc(SC)cc2c(=O)n1Cc1ccc(-c2ccccc2-c2nn[nH]n2)cc1	–	> 1000 nM	7 nM	0.1 h	inhibition in vivo at 1 mg/kg [12]: 44%
CCCCc1nc2ccc(NC(=O)OCC(C)C)cc2c(=O)n1Cc1ccc(-c2ccccc2-c2nnn[nH]2)cc1	1.6 nM	–	6.4 nM	–	–
CCCCc1nc2ccc(-c3ccccn3)cc2c(=O)n1Cc1ccc(-c2ccccc2-c2nnn[nH]2)cc1	5 nM	–	–	–	–
CCCCc1nc2ccc(N(C)C(=O)OCC(C)C)cc2c(=O)n1Cc1ccc(-c2ccccc2-c2nn[nH]n2)cc1	–	> 1000 nM	–	–	Duration [8]: 3.5 h; inhibition in vivo at 0.3 mg/kg [13]: 60%; inhibition in vivo at 1 mg/kg [14]: 72%
CCCCc1nc2ccc(N(C)C(=O)OCC(C)C)cc2c(=O)n1Cc1ccc(-c2ccccc2-c2nnn[nH]2)cc1	1.6 nM	–	3.4 nM	–	–
CCCCc1nc2ccccc2c(=O)n1Cc1ccc(-c2ccccc2-c2nn[nH]n2)cc1	–	> 1000 nM	6 nM	–	Duration [8]: 1.1 h; inhibition in vivo at 10 mg/kg [15]: 98%; inhibition in vivo at 3 mg/kg [16]: 70%; inhibition in vivo at 3 mg/kg [17]: 54%; inhibition in vivo at 1 mg/kg [11]: 40%
CCCCc1nc2ccc(-c3ccc(Cl)cc3)cc2c(=O)n1Cc1ccc(-c2ccccc2-c2nn[nH]n2)cc1	30 nM	–	–	–	–
CCCCc1nc2ccc(NC)cc2c(=O)n1Cc1ccc(-c2ccccc2-c2nnn[nH]2)cc1	–	–	2 nM	–	–
CCCCc1nc2ccc(S(C)(=O)=O)cc2c(=O)n1Cc1ccc(-c2ccccc2-c2nn[nH]n2)cc1	7.6 nM	> 1000 nM	3 nM	0.5 h	inhibition in vivo at 1 mg/kg [18]: 79%
Nc1ccc2nc(-c3ccc(-c4ccccc4C(=O)O)cc3)n(Cc3ccc(-c4ccccc4-c4nn[nH]n4)cc3)c(=O)c2c1	–	–	33 nM	–	–
CCCCc1nc2ccc(NC(=O)N(C)C(C)C)cc2c(=O)n1Cc1ccc(-c2ccccc2-c2nn[nH]n2)cc1	–	> 1000 nM	–	> 6 h and 4 h and 2.5 h	Duration [8]: >5 h and >3.5 h and >3 h; inhibition in vivo at 0.3 mg/kg [19]: 80%; inhibition in vivo at 1 mg/kg [20]: 84%; inhibition in vivo at 0.03 mg/kg [21]: 15%; inhibition in vivo at 0.03 mg/kg [22]: 16%; inhibition in vivo at 0.1 mg/kg [23]: 85%; inhibition in vivo at 0.1 mg/kg [24]: 58%; inhibition in vivo at 0.3 mg/kg [25]: 96%; inhibition in vivo at 1 mg/kg [14]: 94%
